In paper PMC12858405, “Ideal efficacy photoswitching for chromocontrol of TRPC4/5 channel functions in live tissues” (Nature Chemical Biology, 2026):

Biological target: T1, TRPC5-V579I-SYFP2 (Homo sapiens, UniProt Q9UL62, V579I)
T1 construct: expressed in transfected cells; host or cells: HEK 293 (ATCC CRL 1573), transiently transfected (jetPRIME)
T1 sequence (Q9UL62 1-973 V579I): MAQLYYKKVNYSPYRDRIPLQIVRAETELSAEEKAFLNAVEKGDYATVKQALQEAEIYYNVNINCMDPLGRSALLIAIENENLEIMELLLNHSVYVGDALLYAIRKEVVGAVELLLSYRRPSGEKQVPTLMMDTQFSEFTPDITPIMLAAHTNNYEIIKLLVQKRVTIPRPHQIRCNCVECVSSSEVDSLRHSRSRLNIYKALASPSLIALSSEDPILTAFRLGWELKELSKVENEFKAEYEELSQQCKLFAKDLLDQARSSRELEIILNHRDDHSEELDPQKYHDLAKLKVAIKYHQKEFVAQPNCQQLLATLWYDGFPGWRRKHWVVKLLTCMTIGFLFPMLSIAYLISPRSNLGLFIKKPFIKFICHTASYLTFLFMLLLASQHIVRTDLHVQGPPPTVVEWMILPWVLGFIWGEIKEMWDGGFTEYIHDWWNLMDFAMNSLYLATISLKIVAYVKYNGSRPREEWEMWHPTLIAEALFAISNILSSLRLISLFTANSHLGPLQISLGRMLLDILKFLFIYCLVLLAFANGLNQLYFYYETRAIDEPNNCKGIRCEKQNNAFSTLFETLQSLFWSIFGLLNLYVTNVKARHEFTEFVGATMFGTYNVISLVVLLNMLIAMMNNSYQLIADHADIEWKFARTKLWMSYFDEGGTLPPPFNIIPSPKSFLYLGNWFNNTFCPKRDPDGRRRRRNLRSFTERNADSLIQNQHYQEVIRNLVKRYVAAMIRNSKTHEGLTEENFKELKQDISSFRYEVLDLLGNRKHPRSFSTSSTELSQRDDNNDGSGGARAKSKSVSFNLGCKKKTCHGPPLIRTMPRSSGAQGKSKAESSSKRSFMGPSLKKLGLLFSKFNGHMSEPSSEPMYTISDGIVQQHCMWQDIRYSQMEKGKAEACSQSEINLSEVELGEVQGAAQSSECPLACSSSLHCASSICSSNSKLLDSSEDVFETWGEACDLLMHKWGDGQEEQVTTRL
Assay: Fura-2 [Ca2+]i recordings, HEK 293 transiently expressing TRPC5-V579I-SYFP2
Type: cell-based
Conditions: 10-1000 nM; compound plate illuminated at 380 nm; EA 100 nM as maximum
From the text: Müller, Niemeyer, et al., Schaefer & Thorn-Seshold 2025: Ideal Efficacy Photoswitching of TRPC4/5 in Tissue […]
1.4.3 Note on TRPC4 / TRPC5 Sequence Alignment
The key contact residues of interest in the ligand binding site are highly conserved between TRPC4 and TRPC5. The relevant sequences in the site are: […]
1.4.4 Differences and selectivity between TRPC5 and TRPC4?
AM237 activates TRPC5 but inhibits EA mediated activation of TRPC4; Pico145 inhibits both TRPC4 and TRPC5. Thus, somewhat naively, it could be argued that it is the para substituent here which affects both the efficacy mode and the selectivity for TRPC4 and/or TRPC5.
Intriguingly, Z-AzPico activates TRPC4 and TRPC5 with low nanomolar potency whereas Z-AzHC only activates TRPC5 but not TRPC4. Therefore, the meta substituent is now responsible for the selectivity in this case. The cryo-EM structures of Pico145 and HC-070 in complex with TRPC5 indicated the same binding site but the southern phenyl ring bearing the OCF3/Cl group is flipped and pointing in opposite directions.
Z isomers, i.e. Z-buried vs. E-projected. Additionally, both E-AzPico and E-AzHC inhibit EA […]
Intracellular calcium ([Ca2+]i) was measured using the ratiometric Ca2+ dye Fura-2. […]

Cn1c(=O)n(CCCO)c(=O)c2c1nc(Oc1ccc(Cl)c(OC(F)(F)F)c1)n2Cc1ccc(Cl)cc1 [AM237, reference compound]
Effect on [Ca2+]i, TRPC5V579I: partial agonists

Cn1c(=O)n(CCCO)c(=O)c2c1nc(Oc1ccc(/N=N\c3ccccc3)c(Cl)c1)n2Cc1ccc(Cl)cc1 [Z*-AzHC]
Effect on [Ca2+]i, TRPC5V579I: partial agonists
